Laboratory results taken from ChEMBL document CHEMBL5029190, “A Series of Pyrazole Analogs Binding to KRASG12C as Potential Cancer Treatment” (ACS Med Chem Lett, 2022).

Biological target: GTPase KRas (Homo sapiens, UniProt P01116, G12C)
Experiment: Inhibition of human KRAS G12C mutant incubated for 2 hrs by scintillation counter based covalent competition assay

Row | SMILES | IC50 [µM]
1 | C=CC(=O)N1CC2(CC(n3nc(-c4ccc5c(c4)CCN5C(=O)CN4CC[C@H](F)C4)c(-c4c(Cl)c(C)cc5[nH]ncc45)c3C)C2)C1 (stereo in doubt; 76a) | 0.015
2 | C=CC(=O)N1CC2(CC(n3nc(-c4ccc5c(c4)CCN5C(=O)CN4CC[C@H](F)C4)c(-c4c(Cl)c(C)cc5[nH]ncc45)c3C)C2)C1 (stereo in doubt; 76b) | 13.3
